For one assay, the target named is T1, cloned human dopamine D3 receptors (Homo sapiens, UniProt P35462).
T1 construct: expressed in transfected cells; membrane homogenate
T1 sequence (P35462 whole entry): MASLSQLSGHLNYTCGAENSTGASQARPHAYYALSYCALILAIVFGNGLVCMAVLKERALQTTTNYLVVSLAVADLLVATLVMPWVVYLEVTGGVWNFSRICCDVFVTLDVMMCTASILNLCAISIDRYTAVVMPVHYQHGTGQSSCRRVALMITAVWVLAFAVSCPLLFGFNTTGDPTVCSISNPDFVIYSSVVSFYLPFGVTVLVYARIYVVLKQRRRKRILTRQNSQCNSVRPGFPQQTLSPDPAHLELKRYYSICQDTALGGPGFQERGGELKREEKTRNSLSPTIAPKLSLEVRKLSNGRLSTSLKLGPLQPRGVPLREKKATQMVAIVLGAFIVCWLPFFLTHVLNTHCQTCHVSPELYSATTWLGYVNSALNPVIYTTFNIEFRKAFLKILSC
Kind of assay: [N-Methyl-3H]Spiroperidol binding to cloned human dopamine D3 receptors (Protocol 1). Particulars: Table 2; read-out: D3K1. The method, boiled down:
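Membranes from CHO cells stably expressing cloned human D3 receptor were used for [N-methyl-3H]spiroperidol (60-90 Ci/mmol) binding. Assay buffer was 0.05 M Tris HCl pH 7.7 with 120 mM NaCl, 5 mM KCl, 2 mM CaCl2 and 1 mM MgCl2, optionally 0.1% ascorbic acid; total ligand concentration calculated from added CPM.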
`Cc1ccc(C(=O)NCC(CO)CCN2CCN(c3csc4cc(C(F)(F)F)ccc34)CC2)cc1` (stereo not drawn) [818921ES]: the Ki is 0.331 µM. Consider `O=C(NCCCN1CCCN(c2csc3cc(F)ccc23)CC1)c1ccc2ccccc2c1` [compound 827139], for which the Ki amounted to 0.131 µM. `O=C(N[C@H](CO)CCCN1CCN(c2csc3cc(C(F)(F)F)ccc23)CC1)c1cc2ccc(Cl)cc2s1` [compound 815710]: the Ki is 0.21 µM. Take `NS(=O)(=O)c1cc(C(=O)NCCCCN2CCCN(c3csc4cc(F)ccc34)CC2)c(O)c2ccccc12` [compound 817265]: the Ki is 0.046 µM. For `O=C(NCC(CO)CCN1CCN(c2csc3cc(C(F)(F)F)ccc23)CC1)c1cc2ccccc2o1` (stereo not drawn) [818932ES], the Ki stood at 0.207 µM. Consider `O=C(N[C@H](CO)CCCN1CCN(c2csc3cc(C(F)(F)F)ccc23)CC1)c1cc2ccccc2[nH]1` [compound 815698], for which the Ki came out at 0.329 µM. As for `COc1ccc(C(=O)NC/C=C\CN2CCN(c3csc4cc(C(F)(F)F)ccc34)CC2)cc1` [compound 827734], the Ki amounted to 0.0373 µM.

The same assay, now with this note: read-out: D3K1.
For the compound `O=C(COCc1ccccc1)NC/C=C\CN1CCN(c2csc3cc(C(F)(F)F)ccc23)CC1` [compound 826349], the Ki came to 0.18 µM.

As for `O=C(NCCCCN1CCN(c2c(Cl)sc3cc(F)ccc23)CC1)c1cc2ccccc2s1` [compound 815064], the Ki came to 0.0019 µM. For the compound `O=C(NCCCCN1CCN(c2c(Cl)sc3cc(F)ccc23)CC1)c1ccc(C(F)(F)F)cc1` [compound 815067], the Ki was 0.0201 µM. Still for that read-out and setting: the same measure for `COc1ccc2[nH]c(C(=O)NCCCCCN3CCN(c4csc5cc(C(F)(F)F)ccc45)CC3)cc2c1` [compound 826795]: 0.0139 µM. Same read-out and setting: the same measure for `O=C(NCCCCCN1CCN(c2csc3cc(C(F)(F)F)ccc23)CC1)c1cc2ccccc2[nH]1` [compound 826794]: 0.0111 µM. For the compound `O=C(NCCCCCCN1CCN(c2csc3cc(C(F)(F)F)ccc23)CC1)c1cccs1` [compound 826746], the Ki was 0.0008 µM. Consider `O=C(N[C@H](CO)CCCN1CCN(c2csc3cc(C(F)(F)F)ccc23)CC1)c1cc2ccc(Cl)cc2s1` [compound 815710], for which the Ki came to 0.21 µM. On the same count and under the same terms, as for `O=C(NCCCCCN1CCN(c2csc3cc(C(F)(F)F)ccc23)CC1)c1ccc2ccccc2c1` [compound 826769], the figure is 0.007 µM. Turning to `O=C(NC/C=C/CN1CCN(c2csc3cc(C(F)(F)F)ccc23)CC1)c1cccnc1` [compound 827714], the Ki came to 0.043 µM. On to `O=C(NCCCCCCN1CCN(c2csc3cc(C(F)(F)F)ccc23)CC1)c1cccc(F)c1` [compound 827730], for which the Ki turned out to be 0.0027 µM. Regarding `O=C(NCCCCN1CCN(c2c(Cl)sc3cc(F)ccc23)CC1)c1ccc(Br)cc1` [compound 815063], the Ki stood at 0.0063 µM.

Turning to `O=C(N[C@H](CO)CCCN1CCN(c2csc3cc(C(F)(F)F)ccc23)CC1)c1cc2ccccc2[nH]1` [compound 815698], the Ki was determined as 0.329 µM. As for `O=C(NC/C=C\CN1CCN(c2csc3cc(C(F)(F)F)ccc23)CC1)c1cccc(Cl)c1` [compound 826340], the Ki was 0.073 µM. Take `CC(=O)Nc1ccc(C(=O)N[C@@H](CO)CCCN2CCN(c3csc4cc(C(F)(F)F)ccc34)CC2)cc1` [compound 815667]: the Ki was found to be 0.203 µM.

The assay is the same for the next values; noted with them: the 13th table, unit inferred; read-out: D3Ki.
In the case of `COc1ccc2[nH]c(C(=O)NCCCCCN3CCCN(c4csc5cc(F)ccc45)CC3)cc2c1` [S984505], the Ki was 0.013 µM. `O=C(NCCCCN1CCCN(c2csc3cc(F)ccc23)CC1)c1ccc2ccccc2c1` [compound 822156]: the Ki came out at 0.00067 µM.

`O=C(NCCCCN1CCCN(c2csc3cc(C(F)(F)F)ccc23)CC1)c1cccc(F)c1` [S980635]: the Ki amounted to 0.071 µM. In the case of `O=C(NCCCCN1CCCN(c2csc3cc(F)ccc23)CC1)c1cccs1` [compound 822149], the Ki amounted to 0.0027 µM. Take `O=C(NCCCCN1CCCN(c2csc3cc(F)ccc23)CC1)c1ccc(Cl)cc1` [compound 822150]: the Ki stood at 0.0063 µM. Regarding `O=C(NCCCCN1CCCN(c2csc3cc(C(F)(F)F)ccc23)CC1)c1ccsc1` [S980656], the Ki came out at 0.028 µM. In the case of `CCOc1ccc(C(=O)NCCCCN2CCC(c3noc4ccsc34)CC2)cc1` [compound 815152], the Ki turned out to be 0.158 µM. With `COc1cccc(C(=O)NCCCCN2CCCN(c3csc4cc(C(F)(F)F)ccc34)CC2)c1` [S980640], the Ki stood at 0.043 µM. On to `O=C(NCCCCCN1CCCN(c2csc3cc(F)ccc23)CC1)c1cccc2[nH]ccc12` [S984508], for which the Ki turned out to be 0.0348 µM.

In the case of `O=C(NCCCCN1CCCN(c2csc3cc(C(F)(F)F)ccc23)CC1)c1ccc2nonc2c1` [S980664], the Ki came out at 0.0061 µM. Still for that read-out and setting: the same measure for `O=C(NCCCCCN1CCC(c2noc3ccsc23)CC1)C(Cl)c1ccccc1` (stereo not drawn) [compound 816204]: 0.218 µM; for `Cn1c(C(=O)NCCCCN2CCCN(c3csc4cc(F)ccc34)CC2)cc2ccccc21` [822228G]: 0.00178 µM.

For `O=C(NCCCCCN1CCCN(c2csc3cc(F)ccc23)CC1)c1cnc(-c2cccnc2)s1` [S984497], the Ki turned out to be 0.0493 µM.

For `COc1cc(OC)cc(C(=O)NCCCCN2CCCN(c3csc4cc(F)ccc34)CC2)c1` [compound 82251], the Ki was found to be 0.0109 µM.

Consider `O=C(NCCCCN1CCCN(c2csc3cc(C(F)(F)F)ccc23)CC1)c1cccc(C(F)(F)F)c1` [S980633], for which the Ki is 0.23 µM. As for `O=C(NCCCCCN1CCC(c2noc3ccsc23)CC1)c1cc2ccccc2s1` [compound 816196], the Ki was 0.161 µM. In the case of `O=C(NCCCCCN1CCCN(c2csc3cc(F)ccc23)CC1)c1csnn1` [S984498], the Ki was 0.0395 µM. For `Cc1nn(-c2ccccc2)nc1C(=O)NCCCCN1CCCN(c2csc3cc(F)ccc23)CC1` [S981833], the Ki is 0.009 µM. With `O=C(NCCCCN1CCC(c2noc3ccsc23)CC1)c1ccc2ccccc2c1` [compound 81514], the Ki stood at 0.191 µM. On the same count and under the same terms, as for `COc1ccc(C(=O)NCCCCN2CCCN(c3csc4cc(F)ccc34)CC2)cc1` [S981845], the figure is 0.00101 µM. Regarding `O=C(NCCCCN1CCCN(c2csc3cc(C(F)(F)F)ccc23)CC1)c1ccncc1` [S980645], the Ki worked out at 0.044 µM.

Still in this assay, the particulars now being: the 14th table; read-out: D3 Ki.
Regarding `COc1ccc2[nH]c(C(=O)NCCCCCN3CCN(c4csc5cc(C(F)(F)F)ccc45)CC3)cc2c1` [compound 826795], the Ki came to 0.0139 µM. Consider `O=C(NCCCCCN1CCN(c2csc3cc(F)ccc23)CC1)c1cccs1` [compound 826774], for which the Ki turned out to be 0.00825 µM. Same read-out and setting: the same measure for `O=C(NCCCCCN1CCN(c2csc3cc(C(F)(F)F)ccc23)CC1)c1cc2ccccc2[nH]1` [compound 826794]: 0.0111 µM; for `O=C(NCCCCCCN1CCN(c2csc3cc(C(F)(F)F)ccc23)CC1)c1cccs1` [compound 826746]: 0.0008 µM; for `O=C(N[C@H](CO)CCCN1CCN(c2csc3cc(C(F)(F)F)ccc23)CC1)c1cc2ccc(Cl)cc2s1` [compound 815710]: 0.21 µM.

Regarding `O=C(NCCCCCN1CCN(c2csc3cc(C(F)(F)F)ccc23)CC1)c1ccc2ccccc2c1` [compound 826769], the Ki amounted to 0.007 µM. The same measure, in the same setting: as for `O=C(NCCCCCCN1CCN(c2csc3cc(C(F)(F)F)ccc23)CC1)c1cccc(F)c1` [compound 827730], the figure is 0.0027 µM.

As for `O=C(N[C@H](CO)CCCN1CCN(c2csc3cc(C(F)(F)F)ccc23)CC1)c1cc2ccccc2[nH]1` [compound 815698], the Ki was 0.329 µM. Regarding `CC(=O)Nc1ccc(C(=O)N[C@@H](CO)CCCN2CCN(c3csc4cc(C(F)(F)F)ccc34)CC2)cc1` [compound 815667], the Ki is 0.203 µM.

Still in this assay, the particulars now being: the 15th table; read-out: D3 Ki.
For the compound `O=C(NCCCCN1C2CCC1CC(c1noc3cc(F)ccc13)C2)c1ccc(F)cc1` (stereo not drawn) [compound 816333], the Ki worked out at 0.474 µM. `O=C(NCCCCN1C2CCC1CC(c1noc3ccccc13)C2)c1ccccc1` (stereo not drawn) [compound 816528]: the Ki amounted to 0.299 µM.

Turning to `CCCCCCc1ccc(C(=O)NCCCCN2C3CCC2CC(c2noc4cc(F)ccc24)C3)cc1` (stereo not drawn) [compound 816345], the Ki came out at 0.0956 µM.

For `O=C(NCCCCN1C2CCC1CC(c1noc3ccccc13)C2)c1cccs1` (stereo not drawn) [compound 816519], the Ki stood at 0.305 µM.

Staying with this assay, now noted: the 16th table; read-out: D3 Ki.
Regarding `O=C(NCCCN1CCCN(c2csc3cc(F)ccc23)CC1)c1ccc2ccccc2c1` [compound 827139], the Ki is 0.131 µM. Consider `NS(=O)(=O)c1cc(C(=O)NCCCCN2CCCN(c3csc4cc(F)ccc34)CC2)c(O)c2ccccc12` [compound 817265], for which the Ki amounted to 0.046 µM.

Still in this assay, the particulars now being: the 18th table; read-out: D3 Ki.
As for `O=C(NCc1sccc1CN1CCN(c2csc3cc(F)ccc23)CC1)c1sccc1-n1cccc1` [compound 826318], the Ki turned out to be 0.09 µM.

On to `O=C(NCc1sccc1CN1CCN(c2csc3cc(F)ccc23)CC1)c1cccc(C(F)(F)F)c1` [compound 826301], for which the Ki came out at 0.094 µM. Turning to `O=C(NCc1sccc1CN1CCN(c2csc3cc(F)ccc23)CC1)c1cc2ccccc2[nH]1` [compound 826322], the Ki is 0.296 µM.

As for `COc1cccc(C(=O)NCc2sccc2CN2CCN(c3csc4cc(F)ccc34)CC2)c1` [compound 826307], the Ki worked out at 0.047 µM.

The same assay, now with this note: the 19th table; read-out: D3 Ki.
As for `O=C(Nc1ccc(CN2CCN(c3csc4cc(F)ccc34)CC2)cc1)c1ccccc1F` [compound 822207], the Ki came to 0.221 µM. In the case of `O=C(Nc1cccc(CN2CCN(c3csc4cc(F)ccc34)CC2)c1)c1ccncc1` [compound 822185], the Ki was 0.0507 µM. Regarding `COc1cc(OC)cc(C(=O)Nc2cccc(CN3CCN(c4csc5cc(F)ccc45)CC3)c2)c1` [compound 822161], the Ki was determined as 0.163 µM.

The assay is the same for the next values; noted with them: the 21st table; read-out: D3 Ki.
`C[C@@H]1CN(c2csc3cc(C(F)(F)F)ccc23)C[C@H](C)N1CCCCNC(=O)c1cccc(F)c1` [compound 827044]: the Ki came to 0.186 µM. The same measure, in the same setting: as for `COc1cccc(C(=O)NCCCCN2[C@H](C)CN(c3csc4cc(F)ccc34)C[C@@H]2C)c1` [compound 826942], the figure is 0.0574 µM; as for `C[C@@H]1CN(c2csc3cc(C(F)(F)F)ccc23)C[C@H](C)N1CCCCNC(=O)c1ccc(-c2ccccc2)cc1` [compound 826933], 0.276 µM; as for `C[C@@H]1CN(c2csc3cc(F)ccc23)C[C@H](C)N1CCCCNC(=O)c1ccc2ccccc2c1` [compound 827051], 0.0295 µM. With `Cc1ccccc1C(=O)NCCCCN1[C@H](C)CN(c2csc3cc(C(F)(F)F)ccc23)C[C@@H]1C` [compound 826931], the Ki turned out to be 0.219 µM. As to `C[C@@H]1CN(c2csc3cc(C(F)(F)F)ccc23)C[C@H](C)N1CCCCNC(=O)c1n[nH]c2ccccc12` [compound 826956], the Ki worked out at 0.19 µM.

Still in this assay, the particulars now being: the 22nd table; read-out: D3 Ki.
As to `O=C(NCCCCN1CCN(c2n[nH]c3ccsc23)CC1)c1ccc(F)c(F)c1` [compound 825163], the Ki came to 0.221 µM. On the same count and under the same terms, as for `O=C(NCCCCN1CCN(c2nn(C(=O)c3cc4ccccc4s3)c3ccsc23)CC1)c1cc2ccccc2s1` [compound 825164], the figure is 0.0104 µM.

The same assay, now with this note: the 23rd table; read-out: D3 Ki.
Regarding `COc1ccc(NC[C@@H]2C[C@H]2CN2CCN(c3csc4cc(C(F)(F)F)ccc34)CC2)cc1` [compound 832279], the Ki was found to be 0.057 µM.

The assay is the same for the next values; noted with them: the 24th table; read-out: D3 Ki.
In the case of `CCCCS(=O)(=O)NCC1CC1CN1CCN(c2csc3cc(C(F)(F)F)ccc23)CC1` (stereo not drawn) [compound 831636], the Ki amounted to 0.186 µM. Consider `CC(C)(C)c1ccc(S(=O)(=O)NCC2CC2CN2CCN(c3csc4cc(C(F)(F)F)ccc34)CC2)cc1` (racemic) [compound 831591], for which the Ki was found to be 0.0933 µM.

The values are drawn from patent publication US7550469B2, “Heterocyclic amide derivatives and their use as dopamine D3 receptor ligands” (Aventis Pharmaceuticals Inc., priority 2001, dated 2009).
